Results as given in ChEMBL document CHEMBL3774345, “Synthesis of new diarylamides with pyrimidinyl pyridine scaffold and evaluation of their anti-proliferative effect on cancer cell lines” (Bioorg Med Chem Lett, 2016).

Assays:
[1] = Cytotoxicity against human SKOV3 cells assessed as cell growth at 10^-8 M after 24 hrs by SRB assay; assay type: functional; conditions: SK-OV-3, 24 h, read-out: Activity
A549 [2] = test: Cytotoxicity against human A549 cells assessed as cell growth at 10^-7 M after 24 hrs by SRB assay; assay type: functional; conditions: A549, 24 h, read-out: Activity
[3] = Cytotoxicity against human COLO205 cells assessed as cell growth at 10^-7 M after 24 hrs by SRB assay; assay type: functional; conditions: COLO 205, 24 h, read-out: Activity
[4] = Cytotoxicity against human SF539 cells assessed as cell growth at 10^-7 M after 24 hrs by SRB assay; assay type: functional; conditions: SF-539, 24 h, read-out: Activity
U-251 [5] = test: Cytotoxicity against human U251 cells assessed as cell growth at 10^-7 M after 24 hrs by SRB assay; assay type: functional; conditions: U-251, 24 h, read-out: Activity
ACHN = test: Cytotoxicity against human ACHN cells assessed as cell growth at 10^-7 M after 24 hrs by SRB assay; assay type: functional; conditions: read-out: Activity
[6] = Cytotoxicity against human SNB19 cells after 24 hrs by SRB assay; assay type: functional; conditions: SNB-19, 24 h
NCI-H522 = test: Cytotoxicity against human NCI-H522 cells assessed as cell growth at 10^-4 M after 24 hrs by SRB assay; assay type: functional; conditions: NCI-H522, 24 h, read-out: Activity
HT-29 = test: Cytotoxicity against human HT-29 cells assessed as cell growth at 10^-4 M after 24 hrs by SRB assay; assay type: functional; conditions: HT-29, 24 h, read-out: Activity
CCRF-CEM = test: Cytotoxicity against human CCRF-CEM cells assessed as cell growth at 10^-8 M after 24 hrs by SRB assay; assay type: functional; conditions: read-out: Activity
NCI-H226 = test: Cytotoxicity against human NCI-H226 cells assessed as cell growth at 10^-6 M after 24 hrs by SRB assay; assay type: functional; conditions: NCI-H226, 24 h, read-out: Activity
[7] = Cytotoxicity against human DU145 cells assessed as cell growth at 10^-4 M after 24 hrs by SRB assay; assay type: functional; conditions: DU-145, 24 h, read-out: Activity
[8] = Cytotoxicity against human HCT15 cells assessed as cell growth at 10^-6 M after 24 hrs by SRB assay; assay type: functional; conditions: HCT-15, 24 h, read-out: Activity
U-251 [9] = test: Cytotoxicity against human U251 cells assessed as cell growth at 10^-6 M after 24 hrs by SRB assay; assay type: functional; conditions: U-251, 24 h, read-out: Activity
Malme-3M = test: Cytotoxicity against human MALME-3M cells assessed as cell growth at 10^-6 M after 24 hrs by SRB assay; assay type: functional; conditions: read-out: Activity
[10] = Cytotoxicity against human UACC257 cells assessed as cell growth at 10^-6 M after 24 hrs by SRB assay; assay type: functional; conditions: UACC-257, 24 h, read-out: Activity
[11] = Cytotoxicity against human UACC62 cells assessed as cell growth at 10^-6 M after 24 hrs by SRB assay; assay type: functional; conditions: UACC-62, 24 h, read-out: Activity
[12] = Cytotoxicity against human NCI-ADR-RES cells assessed as cell growth at 10^-6 M after 24 hrs by SRB assay; assay type: functional; conditions: read-out: Activity
A498 = test: Cytotoxicity against human A498 cells assessed as cell growth at 10^-6 M after 24 hrs by SRB assay; assay type: functional; conditions: A498, 24 h, read-out: Activity
[13] = Cytotoxicity against human Caki1 cells assessed as cell growth at 10^-6 M after 24 hrs by SRB assay; assay type: functional; conditions: CAKI-1, 24 h, read-out: Activity
SK-MEL-5 [14] = test: Cytotoxicity against human SK-MEL-5 cells after 24 hrs by SRB assay; assay type: functional, cell-based; conditions: SK-MEL-5, 24 h
MCF7 [15] = test: Cytotoxicity against human MCF7 cells after 24 hrs by SRB assay; assay type: functional; conditions: MCF7, 24 h
A549 [16] = test: Cytotoxicity against human A549 cells after 24 hrs by SRB assay; assay type: functional; conditions: A549, 24 h
[17] = Cytotoxicity against human MOLT4 cells after 24 hrs by SRB assay; assay type: functional; conditions: MOLT-4, 24 h
[18] = Cytotoxicity against human MOLT4 cells assessed as cell growth at 10^-8 M after 24 hrs by SRB assay; assay type: functional; conditions: MOLT-4, 24 h, read-out: Activity
[19] = Cytotoxicity against human COLO205 cells assessed as cell growth at 10^-8 M after 24 hrs by SRB assay; assay type: functional; conditions: COLO 205, 24 h, read-out: Activity
[20] = Cytotoxicity against human SF539 cells assessed as cell growth at 10^-8 M after 24 hrs by SRB assay; assay type: functional; conditions: SF-539, 24 h, read-out: Activity
U-251 [21] = test: Cytotoxicity against human U251 cells assessed as cell growth at 10^-8 M after 24 hrs by SRB assay; assay type: functional; conditions: U-251, 24 h, read-out: Activity
[22] = Cytotoxicity against human UACC62 cells assessed as cell growth at 10^-8 M after 24 hrs by SRB assay; assay type: functional; conditions: UACC-62, 24 h, read-out: Activity
[23] = Cytotoxicity against human OVCAR3 cells assessed as cell growth at 10^-8 M after 24 hrs by SRB assay; assay type: functional; conditions: OVCAR-3, 24 h, read-out: Activity
SR = test: Cytotoxicity against human SR cells assessed as cell growth at 10^-5 M after 24 hrs by SRB assay; assay type: functional; conditions: read-out: Activity
A549 [24] = test: Cytotoxicity against human A549 cells assessed as cell growth at 10^-5 M after 24 hrs by SRB assay; assay type: functional; conditions: A549, 24 h, read-out: Activity
SK-MEL-5 [25] = test: Cytotoxicity against human SK-MEL-5 cells assessed as cell growth at 10^-5 M after 24 hrs by SRB assay; assay type: functional; conditions: SK-MEL-5, 24 h, read-out: Activity
[26] = Cytotoxicity against human UACC257 cells assessed as cell growth at 10^-5 M after 24 hrs by SRB assay; assay type: functional; conditions: UACC-257, 24 h, read-out: Activity
786-0 = test: Cytotoxicity against human 786-0 cells assessed as cell growth at 10^-5 M after 24 hrs by SRB assay; assay type: functional; conditions: 786-0, 24 h, read-out: Activity
MCF7 [27] = test: Cytotoxicity against human MCF7 cells assessed as cell growth at 10^-5 M after 24 hrs by SRB assay; assay type: functional; conditions: MCF7, 24 h, read-out: Activity
[28] = read-out: LC50 (the source's name)
[29] = read-out: pLC50 (the source's name) (converted)

## O=C(Nc1cc(-c2cccnc2)nc(NCCCN2CCOCC2)n1)c1cc(Br)cc(C(F)(F)F)c1
[1]
  growth at 0.01 µM: 97%
A549 [2]
  growth at 0.1 µM: 109%
[3]
  growth at 0.1 µM: 93%
[4]
  growth at 0.1 µM: 87%
U-251 [5]
  growth at 0.1 µM: 97%
ACHN
  growth at 0.1 µM: 100%
[6]; read-out: GI50
  GI50: 2.5 µM
[6]; [28]
  CC50: 21.5 µM
[6]; read-out: TGI
  TGI: 5.75 µM
[6]; read-out: pGI50 (converted)
  GI50: 2.51 µM
[6]; [29]
  CC50: 21.4 µM
[6]; read-out: pTGI (converted)
  TGI: 5.75 µM
NCI-H522
  growth at 100 µM: -82%
HT-29
  growth at 100 µM: -83%
CCRF-CEM
  growth at 0.01 µM: 100%
NCI-H226
  growth at 1 µM: 84%
[7]
  growth at 100 µM: -100%
[8]
  growth at 1 µM: 82%
U-251 [9]
  growth at 1 µM: 98%
Malme-3M
  growth at 1 µM: 90%
[10]
  growth at 1 µM: 113%
[11]
  growth at 1 µM: 90%
[12]
  growth at 1 µM: 88%
A498
  growth at 1 µM: 92%
[13]
  growth at 1 µM: 82%
SK-MEL-5 [14]
  IC50: 1.62 µM
SK-MEL-5 [14]; read-out: GI50
  GI50: 1.64 µM
SK-MEL-5 [14]; [28]
  CC50: 5.56 µM
SK-MEL-5 [14]; read-out: TGI
  TGI: 3.02 µM
SK-MEL-5 [14]; read-out: pGI50 (converted)
  GI50: 1.66 µM
SK-MEL-5 [14]; [29]
  CC50: 5.62 µM
SK-MEL-5 [14]; read-out: pTGI (converted)
  TGI: 3.02 µM
MCF7 [15]; read-out: GI50
  GI50: 2.17 µM
MCF7 [15]; [28]
  CC50: 44.8 µM
MCF7 [15]; read-out: TGI
  TGI: 9.22 µM
MCF7 [15]; read-out: pGI50 (converted)
  GI50: 2.24 µM
MCF7 [15]; [29]
  CC50: 44.7 µM
MCF7 [15]; read-out: pTGI (converted)
  TGI: 9.12 µM
A549 [16]; read-out: GI50
  GI50: 10.1 µM
A549 [16]; [28]
  CC50: 48.8 µM
A549 [16]; read-out: TGI
  TGI: 22.2 µM
A549 [16]; read-out: pGI50 (converted)
  GI50: 10 µM
A549 [16]; [29]
  CC50: 49 µM
A549 [16]; read-out: pTGI (converted)
  TGI: 22.4 µM
[17]; read-out: GI50
  GI50: 3.63 µM
[17]; [28]
  CC50: 59.6 µM
[17]; read-out: TGI
  TGI: 13.1 µM
[17]; read-out: pGI50 (converted)
  GI50: 3.63 µM
[17]; [29]
  CC50: 60.3 µM
[17]; read-out: pTGI (converted)
  TGI: 13.2 µM
[18]
  growth at 0.01 µM: 99%
[19]
  growth at 0.01 µM: 104%
[20]
  growth at 0.01 µM: 95%
U-251 [21]
  growth at 0.01 µM: 97%
[22]
  growth at 0.01 µM: 89%
[23]
  growth at 0.01 µM: 105%
SR
  growth at 10 µM: 1%
A549 [24]
  growth at 10 µM: 51%
SK-MEL-5 [25]
  growth at 10 µM: -98%
[26]
  growth at 10 µM: -83%
786-0
  growth at 10 µM: -80%
MCF7 [27]
  growth at 10 µM: -3%
